Data set [1] is described as follows: In vivo PK study in male ICR mice. The note with it: mouse, 25 umol/kg. The source says: (A) Chemical structure of KCL-HO-1i. […] (G-I) Schematic depicting the transgene of the HO-1 reporter mice (HO-1^Luc/eGFP) (upper panel) and the experimental outline (below) (G). […] Whole mouse total photon flux at each timepoint and condition was quantitated (H). Heat map displaying luciferase expression across the indicated dissected tissues (left panel) and their percentage change relative to vehicle treated animals (right panel) (I) (cohorts of n=6 mice). Images in panel (D) and (G) were created using BioRender. Bar charts show the mean, error bars SD, and the dots show individual data points from individual mice. Line charts display the mean and SEM. * P<0.05, ** P<0.01, **** P<0.0001.
Pharmacokinetics studies were performed by Pharmacology Discovery Services (PDS) Taiwan, Ltd. as a contract research organization. A single dose of 25 µMol/Kg was administered to male ICR mice via the indicated route and blood aliquots (∼300 μL) were obtained via cardiac puncture from euthanised mice using tubes coated with lithium heparin at the indicated times. Blood samples were then gently mixed and centrifuged at 2,500 x g for 15 min at 4 °C within an hour of collection. Subsequently, the plasma samples were harvested and stored frozen at -70°C until further processing. The plasma samples underwent methanol (MeOH) precipitation and were analysed using LC-MS/MS. An Agilent Poroshell 120 EC-C18 column with dimensions of 2.7 μm (3.0 x 50 mm) was utilized for chromatographic separation. The mobile phase consisted of 0.2 % formic acid (FA) in water (solvent A) and 0.2 % FA in acetonitrile (ACN; solvent B), with a gradient from 10 % to 80 % (solvent B) over a 2.5-min period at a flow rate of 0.5 mL/min with a sample injection volume of 5 µL. The bioanalytical method involved utilizing mouse plasma as the sample matrix and 20 μL of sample into a well of a 96-well plate. Subsequently, 300 μL of 0.01 ng/μL oxybutynin internal standard (IS) in MeOH was added to each well, excluding double blank (00) and carryover. For the double blank well and carryover, 300 μL of MeOH was added. After vortexing for 1 min and centrifuging at 1000 x g for 5 min, 200 μL of supernatant was taken and mixed with 300 μL of MeOH/water (50/50) for LC-MS/MS analysis. Finally, the exposure levels (ng/mL) of KCL-HO1i in plasma samples were determined using LC-MS/MS.

Details of data set [2]: method as in PMID 2714739. The settings on record: cited from earlier work.
The test system of data set [3] is CD8^+ T-cells in MMTV-PyMT tumors. Kind of data set: Flow cytometry of the TME of MMTV-PyMT tumors after 36 h treatment. The note with it: single-agent therapy. It counts as in vivo, mouse. How it is done: At 36 h post treatment initiation of treatment mice were sacrificed and tumors were harvested and analyzed. (A) Schematic representing the dosing strategy. (B) The fold change of tumor growth over 36 h post initiation of treatment. (C-G) Tumors were enzyme-digested to release single cells which were analyzed for their live (7AAD^-) stromal cell composition using flow cytometry (n=5 tumors per group) (C) and CD8^+ T-cells (D). Gating strategy (left panel) and quantitation of CD8^+ T-cell subsets based on CD62L and CD44 expressions (right panel; TCM; T central memory cells, TEM; T effector memory cells, Teff; T effectors cells) (E), and the ability of the tumoral CD8^+ T-cells to secrete IFNγ post ex vivo exposure to PMA/ionomycin treatment (F). […] Scale bar is 100 µm and white arrows indicate infiltrating CD8^+ T-cells. […] Image in panel (A) was created using BioRender. Bar charts show the mean, error bars SD, and the dots show individual data points from individual tumors and mice. Gemc.; gemcitabine. * P<0.05, ** P<0.01, *** P<0.001.
MN-MCA1 sarcoma cells were orthotopically implanted into syngeneic C57Bl/6 mice for tumors. A total of 2.5 x 10^5 cells in 100 μL RPMI were injected subcutaneously into female mice. […] When tumors became palpable, volumes were measured every 2-4 days using digital caliper measurements of the long (L) and short (S) dimensions of the tumor. […]
In general terms: A flow cytometer gives signals particle by particle.

Like-named read-outs stand apart in the source and are kept apart here.

Turning to “Sn (IV) mesoporphyrin IX dichloride [SnMP]”, in data set [1] (ip), the “maximum serum concentration (Cmax)” value worked out at 68 ± 19 µg/mL, the “serum half-life (T1/2)” value is recorded as 4 h and the “time to maximum serum concentration (Tmax)” value is 1 h. Besides, in data set [1] (po), the oral bioavailability entry is given as “not orally bioavailable”. For the same compound, in data set [2], the oral bioavailability result was “not orally bioavailable” and the serum half-life entry is “short”.

Turning to `Nc1ccn([C@@H]2O[C@H](CO)[C@@H](O)C2(F)F)c(=O)n1` [gemcitabine], the “abundance of CD8^+ T-cells in the TME” value in data set [3] is listed as “increase in the abundance of CD8^+ T-cells”.

Values taken from publication PMC7618036, “An oral heme oxygenase inhibitor targets immunosuppressive perivascular macrophages in preclinical models of cancer” (Science translational medicine, 2025).
